Reference: patent US6358885B1, “Substituted phenylheterocyclic herbicides” (Mississippi State University, priority 1992, dated 2002)

How the values were obtained:
Experiment in all cases: Test B preemergence/postemergence greenhouse plant response rating 0 to 10
Conditions in all cases: 0 to 10 scale
barley = format: in vivo, Hordeum vulgare
Text: (§1) Seeds of barley (Hordeum vulgare), barnyardgrass (Echinochloa crus-galli), bedstraw (Galium aparine), blackgrass (Alopecurus myosuroides), […] (Bromus secalinus), chickweed (Stellaria media), cocklebur (Xanthium pensylvanicum), corn (Zea mays), cotton (Gossypium hirsutum), crabgrass (Digitaria spp.), giant foxtail (Setaria faberii), lambsquarters (Chenopodium album), morningglory (Ipomoea hederacea), rape (Brassica napus), rice (Oryza sativa), sorghum (Sorghum bicolor), soybean (Glycine max), sugar beet (Beta vulgaris), velvetleaf (Abutilon theophrasti), wheat (Triticum aestivum), wild buckwheat (Polygonum convolvulus), and wild oat (Avena fatua) and purple nutsedge. (Cyperus rotundus) tubers were planted and treated preemergence with test chemicals dissolved in a non-phytotoxic solvent. At the same time, these crop and weed species were also treated with postemergence applications of test chemicals. Plants ranged in height from two to eighteen cm (one to four leaf stage) for postemergence treatments. Treated plants and controls were maintained in a greenhouse for twelve to sixteen days, after which all species were compared to controls and visually evaluated. […] A dash (-) response means no test result.

barnyardgrass = format: in vivo, Echinochloa crus-galli
Text: as §1

bedstraw = format: in vivo, Galium aparine
Text: as §1

blackgrass = format: in vivo, Alopecurus myosuroides
Text: as §1

cheatgrass = format: in vivo, Bromus secalinus
Text: as §1

chickweed = format: in vivo, Stellaria media
Text: as §1

cocklebur = format: in vivo, Xanthium pensylvanicum
Text: as §1

corn = format: in vivo, Zea mays
Text: as §1

cotton = format: in vivo, Gossypium hirsutum
Text: as §1

crabgrass = format: in vivo, Digitaria spp.
Text: as §1

giant foxtail = format: in vivo, Setaria faberii
Text: as §1

lambsquarters = format: in vivo, Chenopodium album
Text: as §1

morningglory = format: in vivo, Ipomoea hederacea
Text: as §1

rape = format: in vivo, Brassica napus
Text: as §1

rice = format: in vivo, Oryza sativa
Text: as §1

sorghum = format: in vivo, Sorghum bicolor
Text: as §1

soybean = format: in vivo, Glycine max
Text: as §1

sugar beet = format: in vivo, Beta vulgaris
Text: as §1

velvetleaf = format: in vivo, Abutilon theophrasti
Text: as §1

wheat = format: in vivo, Triticum aestivum
Text: as §1

wild buckwheat = format: in vivo, Polygonum convolvulus
Text: as §1

wild oat = format: in vivo, Avena fatua
Text: as §1

purple nutsedge = format: in vivo, Cyperus rotundus
Text: as §1

C=CCOc1cc(-c2nn3c(c2Br)CCCC3)c(F)cc1Cl [Compound 37]
Plant response rating, Barley (barley; POSTEMERGENCE, Rate 50 g/ha): 4
Plant response rating, Barley (barley; POSTEMERGENCE, Rate 200 g/ha): 6
Plant response rating, Barley (barley; PREEMERGENCE, Rate 50 g/ha): 0
Plant response rating, Barley (barley; Rate 200 g/ha, PREEMERGENCE): 0
Plant response rating, Barnyardgrass (barnyardgrass; POSTEMERGENCE, Rate 50 g/ha): 5
Plant response rating, Barnyardgrass (barnyardgrass; POSTEMERGENCE, Rate 200 g/ha): 7
Plant response rating, Barnyardgrass (barnyardgrass; PREEMERGENCE, Rate 50 g/ha): 0
Plant response rating, Barnyardgrass (barnyardgrass; Rate 200 g/ha, PREEMERGENCE): 4
Plant response rating, Bedstraw (bedstraw; POSTEMERGENCE, Rate 50 g/ha): 7
Plant response rating, Bedstraw (bedstraw; POSTEMERGENCE, Rate 200 g/ha): 10
Plant response rating, Bedstraw (bedstraw; Rate 200 g/ha, PREEMERGENCE): 8
Plant response rating, Blackgrass (blackgrass; POSTEMERGENCE, Rate 50 g/ha): 4
Plant response rating, Blackgrass (blackgrass; POSTEMERGENCE, Rate 200 g/ha): 7
Plant response rating, Blackgrass (blackgrass; PREEMERGENCE, Rate 50 g/ha): 0
Plant response rating, Blackgrass (blackgrass; Rate 200 g/ha, PREEMERGENCE): 6
Plant response rating, Cheatgrass (cheatgrass; POSTEMERGENCE, Rate 50 g/ha): 4
Plant response rating, Cheatgrass (cheatgrass; POSTEMERGENCE, Rate 200 g/ha): 7
Plant response rating, Cheatgrass (cheatgrass; PREEMERGENCE, Rate 50 g/ha): 5
Plant response rating, Cheatgrass (cheatgrass; Rate 200 g/ha, PREEMERGENCE): 6
Plant response rating, Chickweed (chickweed; POSTEMERGENCE, Rate 50 g/ha): 5
Plant response rating, Chickweed (chickweed; POSTEMERGENCE, Rate 200 g/ha): 10
Plant response rating, Chickweed (chickweed; Rate 200 g/ha, PREEMERGENCE): 9
Plant response rating, Cocklebur (cocklebur; POSTEMERGENCE, Rate 50 g/ha): 7
Plant response rating, Cocklebur (cocklebur; POSTEMERGENCE, Rate 200 g/ha): 10
Plant response rating, Cocklebur (cocklebur; PREEMERGENCE, Rate 50 g/ha): 0
Plant response rating, Cocklebur (cocklebur; Rate 200 g/ha, PREEMERGENCE): 0
Plant response rating, Corn (corn; POSTEMERGENCE, Rate 50 g/ha): 6
Plant response rating, Corn (corn; POSTEMERGENCE, Rate 200 g/ha): 8
Plant response rating, Corn (corn; PREEMERGENCE, Rate 50 g/ha): 0
Plant response rating, Corn (corn; Rate 200 g/ha, PREEMERGENCE): 3
Plant response rating, Cotton (cotton; POSTEMERGENCE, Rate 50 g/ha): 10
Plant response rating, Cotton (cotton; POSTEMERGENCE, Rate 200 g/ha): 10
Plant response rating, Cotton (cotton; PREEMERGENCE, Rate 50 g/ha): 0
Plant response rating, Cotton (cotton; Rate 200 g/ha, PREEMERGENCE): 7
Plant response rating, Crabgrass (crabgrass; POSTEMERGENCE, Rate 50 g/ha): 4
Plant response rating, Crabgrass (crabgrass; POSTEMERGENCE, Rate 200 g/ha): 5
Plant response rating, Crabgrass (crabgrass; PREEMERGENCE, Rate 50 g/ha): 0
Plant response rating, Crabgrass (crabgrass; Rate 200 g/ha, PREEMERGENCE): 7
Plant response rating, Giant foxtail (giant foxtail; POSTEMERGENCE, Rate 50 g/ha): 5
Plant response rating, Giant foxtail (giant foxtail; PREEMERGENCE, Rate 50 g/ha): 2
Plant response rating, Giant foxtail (giant foxtail; Rate 200 g/ha, POSTEMERGENCE): 6
Plant response rating, Giant foxtail (giant foxtail; Rate 200 g/ha, PREEMERGENCE): 5
Plant response rating, Lambsquarter (lambsquarters; POSTEMERGENCE, Rate 50 g/ha): 9
Plant response rating, Lambsquarter (lambsquarters; PREEMERGENCE, Rate 50 g/ha): 10
Plant response rating, Lambsquarter (lambsquarters; Rate 200 g/ha, POSTEMERGENCE): 10
Plant response rating, Lambsquarter (lambsquarters; Rate 200 g/ha, PREEMERGENCE): 10
Plant response rating, Morningglory (morningglory; POSTEMERGENCE, Rate 50 g/ha): 7
Plant response rating, Morningglory (morningglory; PREEMERGENCE, Rate 50 g/ha): 0
Plant response rating, Morningglory (morningglory; Rate 200 g/ha, POSTEMERGENCE): 8
Plant response rating, Morningglory (morningglory; Rate 200 g/ha, PREEMERGENCE): 1
Plant response rating, Rape (rape; POSTEMERGENCE, Rate 50 g/ha): 9
Plant response rating, Rape (rape; Rate 200 g/ha, POSTEMERGENCE): 10
Plant response rating, Rape (rape; Rate 200 g/ha, PREEMERGENCE): 6
Plant response rating, Rice (rice; POSTEMERGENCE, Rate 50 g/ha): 5
Plant response rating, Rice (rice; PREEMERGENCE, Rate 50 g/ha): 0
Plant response rating, Rice (rice; Rate 200 g/ha, POSTEMERGENCE): 6
Plant response rating, Rice (rice; Rate 200 g/ha, PREEMERGENCE): 0
Plant response rating, Sorghum (sorghum; POSTEMERGENCE, Rate 50 g/ha): 5
Plant response rating, Sorghum (sorghum; PREEMERGENCE, Rate 50 g/ha): 0
Plant response rating, Sorghum (sorghum; Rate 200 g/ha, POSTEMERGENCE): 6
Plant response rating, Sorghum (sorghum; Rate 200 g/ha, PREEMERGENCE): 1
Plant response rating, Soybean (soybean; POSTEMERGENCE, Rate 50 g/ha): 5
Plant response rating, Soybean (soybean; PREEMERGENCE, Rate 50 g/ha): 0
Plant response rating, Soybean (soybean; Rate 200 g/ha, POSTEMERGENCE): 6
Plant response rating, Soybean (soybean; Rate 200 g/ha, PREEMERGENCE): 4
Plant response rating, Sugar beet (sugar beet; POSTEMERGENCE, Rate 50 g/ha): 10
Plant response rating, Sugar beet (sugar beet; PREEMERGENCE, Rate 50 g/ha): 9
Plant response rating, Sugar beet (sugar beet; Rate 200 g/ha, POSTEMERGENCE): 10
Plant response rating, Sugar beet (sugar beet; Rate 200 g/ha, PREEMERGENCE): 9
Plant response rating, Velvetleaf (velvetleaf; POSTEMERGENCE, Rate 50 g/ha): 10
Plant response rating, Velvetleaf (velvetleaf; PREEMERGENCE, Rate 50 g/ha): 1
Plant response rating, Velvetleaf (velvetleaf; Rate 200 g/ha, POSTEMERGENCE): 10
Plant response rating, Velvetleaf (velvetleaf; Rate 200 g/ha, PREEMERGENCE): 9
Plant response rating, Wheat (wheat; POSTEMERGENCE, Rate 50 g/ha): 4
Plant response rating, Wheat (wheat; PREEMERGENCE, Rate 50 g/ha): 0
Plant response rating, Wheat (wheat; Rate 200 g/ha, POSTEMERGENCE): 5
Plant response rating, Wheat (wheat; Rate 200 g/ha, PREEMERGENCE): 3
Plant response rating, Wild buckwheat (wild buckwheat; POSTEMERGENCE, Rate 50 g/ha): 9
Plant response rating, Wild buckwheat (wild buckwheat; PREEMERGENCE, Rate 50 g/ha): 9
Plant response rating, Wild buckwheat (wild buckwheat; Rate 200 g/ha, POSTEMERGENCE): 10
Plant response rating, Wild buckwheat (wild buckwheat; Rate 200 g/ha, PREEMERGENCE): 10
Plant response rating, Wild oat (wild oat; POSTEMERGENCE, Rate 50 g/ha): 4
Plant response rating, Wild oat (wild oat; PREEMERGENCE, Rate 50 g/ha): 2
Plant response rating, Wild oat (wild oat; Rate 200 g/ha, POSTEMERGENCE): 6
Plant response rating, Nutsedge (purple nutsedge; POSTEMERGENCE, Rate 50 g/ha): 2
Plant response rating, Nutsedge (purple nutsedge; PREEMERGENCE, Rate 50 g/ha): 0
Plant response rating, Nutsedge (purple nutsedge; Rate 200 g/ha, POSTEMERGENCE): 4
Plant response rating, Nutsedge (purple nutsedge; Rate 200 g/ha, PREEMERGENCE): 0
